# Data: ChEMBL document CHEMBL5126506, “Coumarin-benzimidazole hybrids: A review of developments in medicinal chemistry” (Eur J Med Chem, 2022)
# Legend:
# [1] = Anticancer activity against human KATO III stomach cancer cell line assessed as cell growth inhibition measured after 3 days by CCK-8 assay; type: functional; conditions: 72 h, time 3 day
# PANC-1 = experiment: Anticancer activity against human PANC-1 cells assessed as cell growth inhibition measured after 3 days by CCK-8 assay; type: functional; conditions: PANC-1, 72 h, time 3 day
# SK-OV-3 = experiment: Anticancer activity against human SK-OV-3 cells assessed as cell growth inhibition measured after 3 days by CCK-8 assay; type: functional; conditions: SK-OV-3, 72 h, time 3 day
# K562 = experiment: Anticancer activity against human K562 cells assessed as cell growth inhibition measured after 3 days by CCK-8 assay; type: functional; conditions: K562, 72 h, time 3 day
# Rattus norvegicus [2] = experiment: Antiinflammatory activity in formalin induced Wistar rat paw oedema model assessed as inhibition of paw oedema administered up to 6 hrs by plethysmograph analysis; type: functional, organism-based; set-up: scale not given: the % may be the effect or the level left
# MCF7 = experiment: Anticancer activity against human MCF7 cells assessed as cell growth inhibition measured after 48 hrs by sulforhodamine B staining based analysis; type: functional
# NCI-H460 [3] = experiment: Anticancer activity against human NCI-H460 cells assessed as cell growth inhibition measured after 48 hrs by sulforhodamine B staining based analysis; type: functional
# SF-268 = experiment: Anticancer activity against human SF-268 cells assessed as cell growth inhibition measured after 48 hrs by sulforhodamine B staining based analysis; type: functional
# [4] = Cytotoxicity against human WI-38 cells assessed as cell growth inhibition measured after 48 hrs by sulforhodamine B staining based analysis; type: toxicity
# Salmonella typhi = experiment: Antibacterial activity against Salmonella typhi ATCC 11778 assessed as bacterial growth inhibition at 50 ug/ml incubated for 24 hrs relative to control; type: functional, Salmonella enterica subsp. enterica serovar Typhi; set-up: scale not given: the % may be the effect or the level left; conditions: dose 50 µg/ml
# Shigella dysenteriae = experiment: Antibacterial activity against Shigella dysenteriae ATCC 49345 assessed as bacterial growth inhibition at 50 ug/ml incubated for 24 hrs relative to control; type: functional; set-up: scale not given: the % may be the effect or the level left; conditions: dose 50 µg/ml
# Staphylococcus aureus = experiment: Antibacterial activity against Staphylococcus aureus assessed as zone of inhibition at 1000 ug/ml measured after 24 hrs by cup plate method; type: functional; conditions: read-out: DIZ
# Bacillus subtilis = experiment: Antibacterial activity against Bacillus subtilis assessed as zone of inhibition at 1000 ug/ml measured after 24 hrs by cup plate method; type: functional; conditions: read-out: DIZ
# Pseudomonas aeruginosa = experiment: Antibacterial activity against Pseudomonas aeruginosa assessed as zone of inhibition at 1000 ug/ml measured after 24 hrs by cup plate method; type: functional; conditions: read-out: DIZ
# Escherichia coli = experiment: Antibacterial activity against Escherichia coli assessed as zone of inhibition at 1000 ug/ml measured after 24 hrs by cup plate method; type: functional; conditions: read-out: DIZ
# Aspergillus niger = experiment: Antifungal activity against Aspergillus niger assessed as zone of inhibition at 1000 ug/ml measured after 24 hrs by cup plate method; type: functional; conditions: read-out: DIZ
# Aspergillus flavus = experiment: Antifungal activity against Aspergillus flavus assessed as zone of inhibition at 1000 ug/ml measured after 24 hrs by cup plate method; type: functional; conditions: read-out: DIZ
# Aspergillus terreus = experiment: Antifungal activity against Aspergillus terreus assessed as zone of inhibition at 1000 ug/ml measured after 24 hrs by cup plate method; type: functional; conditions: read-out: DIZ
# Rattus norvegicus [5] = experiment: Antiinflammatory activity in formalin induced fasted albino rat paw oedema model assessed as inhibition of paw oedema at 100 mg/kg, po measured after 4 hrs by plethysmograph analysis relative to control; type: functional; set-up: scale not given: the % may be the effect or the level left
# Hepatitis C virus = experiment: Antiviral activity against HCV GT-1b infected in human Huh-5-2 cells carrying HCV subgenomic replicons assessed as inhibition of viral replication by quantitative RT-PCR assay; type: functional, organism-based, Hepacivirus hominis; conditions: subtype 1b
# Carbonic anhydrase 1 = Carbonic anhydrase 1 (Homo sapiens, UniProt P00915); experiment: Inhibition of human carbonic anhydrase-1 by stopped flow CO2 hydrase assay
# Carbonic anhydrase 2 = Carbonic anhydrase 2 (Homo sapiens, UniProt P00918); experiment: Inhibition of human carbonic anhydrase-2 by stopped flow CO2 hydrase assay
# SNU1 = experiment: Anticancer activity against human SNU1 cells assessed as cell growth inhibition measured after 3 days by CCK-8 assay; type: functional; conditions: SNU1, 72 h, time 3 day
# AGS = experiment: Anticancer activity against human AGS cells assessed as cell growth inhibition measured after 3 days by CCK-8 assay; type: functional; conditions: 72 h, time 3 day
# A549 = experiment: Anticancer activity against human A549 cells assessed as cell growth inhibition measured after 72 hrs by MTT assay; type: functional, cell-based; conditions: A549, 72 h
# NCI-H460 [6] = experiment: Anticancer activity against human NCI-H460 cells assessed as cell growth inhibition measured after 72 hrs by MTT assay; type: functional, cell-based; conditions: NCI-H460, 72 h
# HT-29 = experiment: Anticancer activity against human HT-29 cells assessed as cell growth inhibition measured after 72 hrs by MTT assay; type: functional, cell-based; conditions: HT-29, 72 h
# [7] = Anticancer activity against human U-87 MG cells assessed as cell growth inhibition measured after 72 hrs by MTT assay; type: functional, cell-based, U-87MG ATCC
# Rattus norvegicus [8] = experiment: Antiinflammatory activity in carrageenan induced rat paw oedema model assessed as inhibition of paw oedema, ip pretreated with compound for 30 mins followed by carrageenan injection measured after 3 hrs relative to control; type: functional; set-up: scale not given: the % may be the effect or the level left; conditions: time 3.5 hrs
# SMMC-7721 = experiment: Anticancer activity against human SMMC-7721 cells assessed as cell growth inhibition measured after 72 hrs by MTT assay; type: functional, cell-based; conditions: SMMC-7721, 72 h
# Sprivivirus cyprinus = experiment: Antiviral activity against Carp sprivivirus infected Fathead minnow EPC cells assessed as assessed as suppression of virus-induced cytopathic effect incubated for 48 hrs by CCK-8 assay; type: functional, organism-based
# [9] = Anticancer activity against mouse L1210/0 cells assessed as cell growth inhibition measured after 3 days by CCK-8 assay; type: functional, cell-based; conditions: L1210/0, 72 h
# MOLT-4 = experiment: Anticancer activity against human Molt4/C8 cells assessed as cell growth inhibition measured after 3 days by CCK-8 assay; type: functional, cell-based; conditions: MOLT-4, 72 h
# CCRF-CEM = experiment: Anticancer activity against human CEM/0 cells assessed as cell growth inhibition measured after 3 days by CCK-8 assay; type: functional, cell-based; conditions: 72 h
# HeLa = experiment: Anticancer activity against human HeLa cells assessed as cell growth inhibition by SRB method; type: functional
# Carbonic anhydrase 1, sequence (P00915 whole entry): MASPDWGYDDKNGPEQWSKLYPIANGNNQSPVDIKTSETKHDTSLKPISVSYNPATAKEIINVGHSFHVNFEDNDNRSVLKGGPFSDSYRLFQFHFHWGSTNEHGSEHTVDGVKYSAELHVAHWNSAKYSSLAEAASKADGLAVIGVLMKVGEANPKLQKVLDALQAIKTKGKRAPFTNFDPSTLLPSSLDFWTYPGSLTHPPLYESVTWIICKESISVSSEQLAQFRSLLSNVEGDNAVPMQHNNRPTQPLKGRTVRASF
structure (smiles),measurement,setting,value
CCN(CC)c1ccc2cc(-c3nc4ccccc4n3C)c(=O)oc2c1,GI50,[1],0.1 µM
same,GI50,PANC-1,0.1 µM
same,GI50,SK-OV-3,0.07 µM
same,GI50,K562,0.07 µM
O=c1oc2ccc(Cl)cc2cc1-c1nc2ccccc2[nH]1,Activity,Rattus norvegicus [2],46.75%
O=c1oc2ccccc2cc1-c1nc2ccccc2n1C(=S)Nc1ccccc1,GI50,MCF7,0.08 µM
same,GI50,NCI-H460 [3],0.05 µM
same,GI50,SF-268,0.06 µM
same,GI50 at 48 h,[4],28 µM
O=c1oc2ccc(Br)cc2cc1-c1nc2ccccc2[nH]1,Activity,Rattus norvegicus [2],45.45%
O=c1oc2ccccc2cc1CSc1nc2ccccc2[nH]1,Activity,Salmonella typhi,100%
same,Activity,Shigella dysenteriae,100%
Cc1c(/C=N/Nc2nc3ccccc3[nH]2)c(=O)oc2cc(O)ccc12,zone of inhibition at 1000 µg/mL,Staphylococcus aureus,13 mm
same,zone of inhibition at 1000 µg/mL,Bacillus subtilis,13 mm
same,zone of inhibition at 1000 µg/mL,Pseudomonas aeruginosa,13 mm
same,zone of inhibition at 1000 µg/mL,Escherichia coli,13 mm
same,zone of inhibition at 1000 µg/mL,Aspergillus niger,13 mm
same,zone of inhibition at 1000 µg/mL,Aspergillus flavus,13 mm
same,zone of inhibition at 1000 µg/mL,Aspergillus terreus,13 mm
same,Activity,Rattus norvegicus [5],37%
Cc1ccc2nc(SCc3cc4ccccc4oc3=O)[nH]c2c1,Activity,Salmonella typhi,100%
same,Activity,Shigella dysenteriae,100%
CC(=O)OC[C@H]1O[C@@H](n2c(SCc3cc4cc(Br)ccc4oc3=O)nc3ccccc32)[C@H](OC(C)=O)[C@@H](OC(C)=O)[C@@H]1OC(C)=O,EC50,Hepatitis C virus,4.1 µM
O=c1cc(Cn2c[n+](CCCCn3c[n+](Cc4cc(=O)oc5cc(O)ccc45)c4ccccc43)c3ccccc32)c2ccc(O)cc2o1,IC50,Carbonic anhydrase 1,81 µM
same,IC50,Carbonic anhydrase 2,94 µM
CCN(CC)c1ccc2cc(-c3nc4cc(C)ccc4n3C)c(=O)oc2c1,GI50,[1],0.59 µM
same,GI50,K562,0.67 µM
same,GI50,SNU1,0.12 µM
same,GI50,AGS,0.78 µM
O=C(CCl)n1c(-c2cc3ccccc3oc2=O)nc2ccccc21,IC50,A549,0.29 µM
same,IC50,NCI-H460 [6],0.59 µM
same,IC50,HT-29,0.57 µM
same,IC50,[7],0.34 µM
O=c1cc(Cc2nc3ccccc3[nH]2)c2ccccc2o1,Activity,Rattus norvegicus [8],45%
O=c1cc(Cn2c[n+](CCCCCn3c[n+](Cc4cc(=O)oc5cc(O)ccc45)c4ccccc43)c3ccccc32)c2ccc(O)cc2o1,IC50,Carbonic anhydrase 1,99 µM
same,IC50,Carbonic anhydrase 2,89 µM
O=C(/C(Cl)=N/Nc1ccc(Cl)cc1Cl)n1c(-c2cc3ccccc3oc2=O)nc2ccccc21,IC50,A549,0.25 µM
same,IC50,NCI-H460 [6],0.36 µM
same,IC50,[7],0.29 µM
same,IC50,SMMC-7721,0.22 µM
O=c1cc(C[n+]2cn(Cc3ccc4ccccc4c3)c3ccccc32)c2ccc(O)c(O)c2o1,IC50,Carbonic anhydrase 1,4.99 µM
same,IC50,Carbonic anhydrase 2,6.01 µM
O=c1ccc2cc(OCCCn3cnc4ccccc43)ccc2o1,IC50,Sprivivirus cyprinus,2.2 µg/mL
O=c1oc2ccc(Cl)cc2cc1-c1nc2cc(Cl)ccc2[nH]1,IC50,[9],0.67 µg/mL
same,IC50,MOLT-4,0.44 µg/mL
same,IC50,CCRF-CEM,0.42 µg/mL
Cc1ccc(S(=O)(=O)n2c(-c3cc(=O)oc4ccc(C)cc34)nc3ccccc32)cc1,GI50,HeLa,35 µg/mL
Cc1ccc2c(Cc3nc4ccccc4[nH]3)cc(=O)oc2c1,Activity,Rattus norvegicus [8],45%
O=c1oc2ccccc2c2c(O)cn3c4ccccc4nc3c12,GI50,MCF7,24.1 µM
same,GI50,NCI-H460 [3],30.8 µM
same,GI50,SF-268,26.1 µM
same,GI50 at 48 h,[4],25.2 µM
Cc1cn2c3ccccc3nc2c2c(=O)oc3ccccc3c12,GI50,MCF7,26.6 µM
same,GI50,NCI-H460 [3],29.3 µM
same,GI50,SF-268,18.4 µM
same,GI50 at 48 h,[4],68.2 µM
